From patent publication US10563263B2, “Genetic polymorphisms associated with statin response and cardiovascular diseases, methods of detection and uses thereof” (CELERA CORPORATION, priority 2010, dated 2020)

System: CVD (CHD or stroke)
Assay: CARE: SNP by pravastatin treatment interaction, logistic regression (synergy index), CVD endpoint
Type: in vivo, human
Details: for OR (SNP x pravastatin interaction) / OR (synergy index, SNP x pravastatin treatment interaction): CARE; for OR (synergy index), CARE, Prava vs Placebo: CVD endpoint
Text: CARE was a secondary prevention trial and WOSCOPS was a primary prevention trial.
The CHD endpoint was defined in the analyses herein of CARE as a composite endpoint of fatal CHD, definite non-fatal MI, or revascularization, and was defined in the analyses herein of WOSCOPS as a composite endpoint of death from CHD, nonfatal MI, or revascularization. In both the CARE and WOSCOPS analyses herein, the CVD endpoint was defined as a composite endpoint of CHD or stroke. […] Revascularization, which can include percutaneous transluminal coronary angioplasty (PTCA), stent placement, and coronary artery bypass graft (CABG), are medical interventions that indicate the presence of CHD.
Cohort and case-only study designs were used to identify SNPs associated with response to statin treatment.
For each SNP, a logistic regression model having treatment status as the dependent variable and SNP as the independent predictor variable was performed, with terms for age, sex and race included in the model as covariates. The anti-log of the regression coefficient corresponding to the SNP is an estimate of the synergy index (SI) (Davis et al., “Imputing gene-treatment interactions when the genotype distribution is unknown using case-only and putative placebo analyses-a new method for the Genetics of Hypertension Associated Treatment (GenHAT) study”, Statistics in Medicine 23: (2004), pages 2413-2427). The SI is a ratio of odds ratios: for example in the CARE and WOSCOPS studies, the SI represents the factor by which the odds-ratio of statin treatment, compared with placebo, among major homozygous individuals is multiplied by in order to obtain the odds-ratio of treatment vs. placebo among heterozygous individuals; and multiplied by a second time to obtain the odds-ratio of treatment vs. placebo in minor homozygous individuals. […] In a randomized clinical trial, genotype and treatment are independent by design.

With `CC[C@H](C)C(=O)O[C@H]1C[C@H](O)C=C2C=C[C@H](C)[C@H](CC[C@@H](O)C[C@@H](O)CC(=O)O)[C@H]21` [Pravastatin, pravastatin] the “OR (SNP x pravastatin interaction)” value (rs2132242 allele A, ADD model, Imputed) was 0.7317, the “OR (SNP x pravastatin interaction)” value (rs2132242 allele A, DOM model, Imputed) was 0.6043 and the “OR (SNP x pravastatin interaction)” value (rs2158958 allele A, DOM model, Imputed) was 0.6617. For the same compound, the “OR (SNP x pravastatin interaction)” value (rs2158961 allele G, DOM model, Imputed) was 0.6544, the “OR (SNP x pravastatin interaction)” value (rs2163046 allele A, DOM model, Imputed) was 1.474 and the “OR (SNP x pravastatin interaction)” value (rs2180286 allele G, DOM model, Imputed) was 0.6211. For the same compound, the “OR (SNP x pravastatin interaction)” value (rs2180684 allele A, DOM model, Imputed) was 1.684, the “OR (SNP x pravastatin interaction)” value (rs2188079 allele C, ADD model, Imputed) was 1.333 and the “OR (SNP x pravastatin interaction)” value (rs2190598 allele T, DOM model, Imputed) was 0.6617. For the same compound, the “OR (SNP x pravastatin interaction)” value (rs2190600 allele A, DOM model, Imputed) was 0.6716, the “OR (SNP x pravastatin interaction)” value (rs2224184 allele T, DOM model, Genotyped) was 0.6357 and the “OR (SNP x pravastatin interaction)” value (rs2247066 allele A, DOM model, Imputed) was 0.6151. For the same compound, the “OR (SNP x pravastatin interaction)” value (rs2248236 allele C, ADD model, Imputed) was 0.6377, the “OR (SNP x pravastatin interaction)” value (rs2248236 allele C, DOM model, Imputed) was 0.6049 and the “OR (SNP x pravastatin interaction)” value (rs2265733 allele C, ADD model, Imputed) was 0.6269. For the same compound, the “OR (SNP x pravastatin interaction)” value (rs2265733 allele C, DOM model, Imputed) was 0.5989, the “OR (SNP x pravastatin interaction)” value (rs2270584 allele A, ADD model, Imputed) was 0.7437 and the “OR (SNP x pravastatin interaction)” value (rs2270584 allele A, DOM model, Imputed) was 0.5859. The “OR (SNP x pravastatin interaction)” value (rs2270586 allele A, ADD model, Imputed) was 0.7444, the “OR (SNP x pravastatin interaction)” value (rs2270586 allele A, DOM model, Imputed) was 0.5879 and the “OR (SNP x pravastatin interaction)” value (rs2317057 allele T, ADD model, Imputed) was 0.7125. The “OR (SNP x pravastatin interaction)” value (rs2322100 allele T, REC model, Genotyped) was 1.768, the “OR (SNP x pravastatin interaction)” value (rs2322101 allele A, REC model, Imputed) was 1.764 and the “OR (SNP x pravastatin interaction)” value (rs2327929 allele G, REC model, Imputed) was 1.996. For the same compound, the “OR (SNP x pravastatin interaction)” value (rs2332844 allele A, ADD model, Imputed) was 1.802, the “OR (SNP x pravastatin interaction)” value (rs2332844 allele A, REC model, Imputed) was 1.849 and the “OR (SNP x pravastatin interaction)” value (rs2349170 allele G, DOM model, Imputed) was 1.638. For the same compound, the “OR (SNP x pravastatin interaction)” value (rs2356722 allele G, DOM model, Imputed) was 0.5863, the “OR (SNP x pravastatin interaction)” value (rs2364956 allele T, ADD model, Imputed) was 1.439 and the “OR (SNP x pravastatin interaction)” value (rs2373793 allele G, ADD model, Imputed) was 1.379. For the same compound, the “OR (SNP x pravastatin interaction)” value (rs2373793 allele G, DOM model, Imputed) was 1.446, the “OR (SNP x pravastatin interaction)” value (rs2383903 allele G, DOM model, Imputed) was 0.6249 and the “OR (SNP x pravastatin interaction)” value (rs2387945 allele G, DOM model, Imputed) was 1.587. For the same compound, the “OR (SNP x pravastatin interaction)” value (rs2389863 allele A, DOM model, Imputed) was 0.6722, the “OR (SNP x pravastatin interaction)” value (rs2389866 allele C, DOM model, Imputed) was 0.6634 and the “OR (SNP x pravastatin interaction)” value (rs2389869 allele C, DOM model, Imputed) was 0.6634. For the same compound, the “OR (SNP x pravastatin interaction)” value (rs2389870 allele C, DOM model, Genotyped) was 0.6413, the “OR (synergy index, SNP x pravastatin treatment interaction)” value (rs16938626 allele G, model DOM, Imputed) was 0.612 and the “OR (synergy index, SNP x pravastatin treatment interaction)” value (rs16964300 allele G, model ADD, Imputed) was 0.6771. For the same compound, the “OR (synergy index, SNP x pravastatin treatment interaction)” value (rs16964300 allele G, model DOM, Imputed) was 0.7073, the “OR (synergy index, SNP x pravastatin treatment interaction)” value (rs16986282 allele G, model DOM, Imputed) was 0.3124 and the “OR (synergy index, SNP x pravastatin treatment interaction)” value (rs17007620 allele G, model ADD, Imputed) was 1.421. For the same compound, the “OR (synergy index, SNP x pravastatin treatment interaction)” value (rs17007620 allele G, model DOM, Imputed) was 1.572, the “OR (synergy index, SNP x pravastatin treatment interaction)” value (rs17014326 allele G, model DOM, Imputed) was 0.5837 and the “OR (synergy index, SNP x pravastatin treatment interaction)” value (rs17047957 allele C, model DOM, Imputed) was 1.47. The “OR (synergy index, SNP x pravastatin treatment interaction)” value (rs17073341 allele A, model ADD, Imputed) was 2.568, the “OR (synergy index, SNP x pravastatin treatment interaction)” value (rs17073341 allele A, model DOM, Imputed) was 2.569 and the “OR (synergy index, SNP x pravastatin treatment interaction)” value (rs17138702 allele G, model ADD, Imputed) was 0.5527. For the same compound, the “OR (synergy index, SNP x pravastatin treatment interaction)” value (rs17189710 allele T, model ADD, Imputed) was 1.359, the “OR (synergy index, SNP x pravastatin treatment interaction)” value (rs17189710 allele T, model REC, Imputed) was 1.896 and the “OR (synergy index, SNP x pravastatin treatment interaction)” value (rs17310176 allele T, model ADD, Imputed) was 0.6381. For the same compound, the “OR (synergy index, SNP x pravastatin treatment interaction)” value (rs17310176 allele T, model DOM, Imputed) was 0.5794, the “OR (synergy index, SNP x pravastatin treatment interaction)” value (rs17358860 allele A, model DOM, Imputed) was 0.6291 and the “OR (synergy index, SNP x pravastatin treatment interaction)” value (rs17370541 allele T, model REC, Imputed) was 2.075. The “OR (synergy index, SNP x pravastatin treatment interaction)” value (rs17530747 allele T, model DOM, Imputed) was 0.5794, the “OR (synergy index, SNP x pravastatin treatment interaction)” value (rs17649114 allele C, model DOM, Imputed) was 1.543 and the “OR (synergy index, SNP x pravastatin treatment interaction)” value (rs17766172 allele A, model REC, Imputed) was 0.3869. The “OR (synergy index), CARE, Prava vs Placebo” value (shortened to “OR (synergy index), CARE”) (SNP rs304597 (A1 A, A2 G), rec model, cohort) was 1.95, the “OR (synergy index), CARE” value (SNP rs304601 (A1 A, A2 G), rec model, Caseonly) was 2.28 and the “OR (synergy index), CARE” value (SNP rs988146 (A1 G, A2 A), add model, Caseonly) was 0.66. For the same compound, the “OR (synergy index), CARE” value (SNP rs1336400 (A1 A, A2 G), dom model, cohort) was 1.68, the “OR (synergy index), CARE” value (SNP rs1559557 (A1 G, A2 A), add model, Caseonly) was 1.34 and the “OR (synergy index), CARE” value (SNP rs1877527 (A1 G, A2 A), add model, Caseonly) was 0.75. For the same compound, the “OR (synergy index), CARE” value (SNP rs2132241 (A1 A, A2 G), add model, Caseonly) was 0.74, the “OR (synergy index), CARE” value (SNP rs2270588 (A1 G, A2 A), add model, Caseonly) was 0.72 and the “OR (synergy index), CARE” value (SNP rs3844207 (A1 G, A2 C), add model, cohort) was 0.73. For the same compound, the “OR (synergy index), CARE” value (SNP rs7132840 (A1 T, A2 G), add model, cohort) was 0.75, the “OR (synergy index), CARE” value (SNP rs9325191 (A1 A, A2 C), add model, Caseonly) was 0.74 and the “OR (synergy index), CARE” value (SNP rs9346951 (A1 A, A2 G), add model, Caseonly) was 1.56. The “OR (synergy index), CARE” value (SNP rs10787944 (A1 G, A2 A), dom model, Caseonly) was 1.63, the “OR (synergy index), CARE” value (SNP rs10945874 (A1 T, A2 C), add model, cohort) was 1.72 and the “OR (synergy index), CARE” value (SNP rs11178579 (A1 T, A2 G), add model, cohort) was 0.76. For the same compound, the “OR (synergy index), CARE” value (SNP rs13103899 (A1 G, A2 A), dom model, cohort) was 0.70, the “OR (synergy index), CARE” value (SNP rs13107334 (A1 G, A2 T), add model, cohort) was 0.69 and the “OR (synergy index), CARE” value (SNP rs13121569 (A1 G, A2 A), dom model, Caseonly) was 0.66. For the same compound, the “OR (synergy index), CARE” value (SNP rs17048681 (A1 G, A2 T), add model, cohort) was 1.26.
